Measurements from patent EP0731088B1, “Retroviral protease inhibitors” (MONSANTO COMPANY, priority 1990, dated 1992).

Columns and labels:
HIV protease = biological target: T1, HIV protease (Human immunodeficiency virus type 1 group M subtype B, UniProt P04585); assay: HIV protease enzyme assay (fluorogenic substrate 2-aminobenzoyl-Ile-Nle-Phe(p-NO2)-Gln-ArgNH2); assay type: biochemical; conditions: substrate 80 µM, enzyme 12.3 nanomolar, pH 6.4, ambient temperature
T1 construct: HIV protease is diluted in the assay buffer to a final enzyme concentration of 12.3 nanomolar, based on a molecular weight of 10,780
Source text: The compounds of the present invention are effective HIV protease inhibitors. Utilizing an enzyme assay as described below, the compounds set forth in the examples herein disclosed inhibited the HIV enzyme. The preferred compounds of the present invention and their calculated IC50 (inhibiting concentration 50%, i.e., the concentration at which the inhibitor compound reduces enzyme activity by 50%) values are shown in Table 18. The enzyme method is described below. The substrate is 2-aminobenzoyl-Ile-Nle-Phe(p-NO2)-Gln-ArgNH2. The positive control is MVT-101 (Miller, M. et al, Science, 246, 1149 (1989)] The assay conditions are as follows: Assay buffer: • 20 mM sodium phosphate, pH 6.4 • 20% glycerol • 1 mM EDTA • 1 mM DTT • 0.1% CHAPS
The above described substrate is dissolved in DMSO, then diluted 10 fold in assay buffer. Final substrate concentration in the assay is 80 µM.
HIV protease is diluted in the assay buffer to a final enzyme concentration of 12.3 nanomolar, based on a molecular weight of 10,780.
The final concentration of DMSO is 14% and the final concentration of glycerol is 18%. […] The increase in fluorescence is monitored at 4 time points (0, 8, 16 and 24 minutes) at ambient temperature. […]

HIV-1 = assay: CEM cell assay: HIV inhibition in acutely infected cells, tetrazolium (MTT) based colorimetric assay; conditions: Table 19; test concentration not given; CEM cells infected with HIV-1, 7 days
Description: The effectiveness of the compounds listed in Table 19 were determined in the above-described enzyme assay and in a CEM cell assay.
Methods 20, 309-321 (1988).

Structure (SMILES) | IC50 (HIV protease) | Inhibition (HIV-1)
CC(C)CCN(C[C@@H](O)[C@H](Cc1ccccc1)NC(=O)[C@H](CC(N)=O)NC(=O)c1ccc2ccccc2n1)C(=O)CC(C)(C)C (relative stereo) [Compound 1, Butanediamide, N^1-[3-[[[(2,2-dimethyl)propyl]carbonyl](3-methylbutyl)amino]-2-hydroxy-1-(phenylmethyl)propyl]-2-[(2-quinolinylcarbonyl)amino]-, [1S-[1R*(2R*),2S*]]] | 21 nM | 100%
CCCCC(=O)N(CC1CCCCC1)C[C@@H](O)[C@H](Cc1ccccc1)NC(=O)[C@H](CC(N)=O)NC(=O)OCc1ccccc1 (relative stereo) [Compound 2, Butanediamide, N^1-[3-[[butylcarbonyl](cyclohexylmethyl)amino]-2-hydroxy-1-(phenylmethyl)propyl]-2-[(phenylmethyloxy)carbonyl)amino]-, [1S-[1R*(2R*),2S*]]] | 696 nM | 
